According to patent publication US20120016019A1, “PHARMACEUTICAL COMPOSITION FOR TREATING OR PREVENTING CANCER” (priority 2010, published 2012):
Several values for one entry are separate records, joined by “and”; a condition that tells them apart may be missing. Equal values may be shown once. Entries after “also recorded” stand apart in the source; their conditions may differ. Read-outs that look alike come from different tables or passages of the source.

Columns and labels:
MDA-MB-468 = experiment: Cell counts, MDA-MB-468; type: cell-based; conditions: for cell counts: single wells
Method: (§1) Cells were harvested using Trypsin-EDTA at the designated time points. […] Two 48-well plates were used per cell line, and they were measured at 0 h, 12 h, 24 h, 48 h, 4 d and 7 d, respectively.
(§2) In the 1st plate, cells were treated with the composition according to the invention and medium was changed at 0 h and 3 d. […] As a result, LC-50 curves were generated in the 1st week.
At 0 h of the 2nd week, medium was exchanged with untreated medium for the remainder of the experiment. The untreated controls were not measured in the 2nd week (recovery) due to overconfluence by the end of the 1st week. As a result, Recovery curves were generated in the 2nd week.

PC-3 = conditions: for The absorbance, Mean value / The absorbance / The absorbance, group - Blank: PC-3, XTT 500 nm; for The absorbance: single wells
Method: Cancer cell lines HCC 1419, MCF-7, MDA-MB-468, SKBR3, PC3, HT1299, Saos-2, C-6, AsPc, MDA-MB-231, RKO, HeLa and TT, and normal cell lines HME 50 HT, BJ and CCD-1074sk were tested for changes in metabolism (XTT assay) and cell death (cell counts).
Cells were plated into 48-well Corning CellBind™ plates at densities of 20,000 cells for normal cells and 10,000˜20,000 cells for cancer cells. 24 to 48 h after plating, cells were treated with the composition according to the invention at concentrations of 4.5e-2M. The first time point treated with the composition of the invention is 0 h. At 3 days after the first treatment with the composition of the invention, medium was changed and the composition of the invention at the same concentrations were added to the cultured cells.
The XTT assay is an accepted analysis technique for viability and cytotoxicity of anticancer drugs or other pharmaceutical compositions. Cells were seeded in a 96-well tissue culture plate at a density of 10,000 cells for normal cells and 5,000 cells for cancer cells. After incubation period, the formazan dye formed was quantitated using an ELISA reader. The optimal wavelength used in experiments was 500 nm, and it was measured at 0 h, 12 h, 24 h, 48 h, 4 d and 7 d, respectively. The obtained values were generated using the software SoftMax Pro 4.8.
The cell viability was calculated according to the manufacturer's instructions as follows (the term “blank” means XTT in medium only):
Cellular cytotoxicity was calculated according to the manufacturer's instructions as follows: […]

HT 1299 = experiment: Cell counts, HT 1299; type: cell-based; conditions: for cell counts: single wells
Method: As a result, LC-50 curves were generated in the 1st week.
In the 2nd plate, 7 d of the 1st week (LC-50) is the same as 0 h of the 2nd week (recovery).
At 0 h of the 2nd week, medium was exchanged with untreated medium for the remainder of the experiment. […] As a result, Recovery curves were generated in the 2nd week.
HT 1299 is a non-small cell lung cancer. The cells have a homozygous partial deletion of the p53 protein, and lack expression of p53 protein.

Saos-2 = experiment: Cell counts, Saos-2; type: cell-based
Method: as §1, §2

TT = experiment: Viability by trypan blue staining, TT; type: cell-based; conditions: for viability (%) calculated from the cell counts: single value
Method: (§3) Cells were harvested using Trypsin-EDTA at the designated time points. When total cells for each well were counted with a Beckman-Coulter Z1 Particle Characterization Unit, the vertical axis represents 1/20 of cell number in the Figures attached to the specification, while when counted with a Beckman-Coulter Vi-Cell, the vertical axis represents cell number in the Figures. Two 48-well plates were used per cell line, and they were measured at 0 h, 12 h, 24 h, 48 h, 4 d and 7 d, respectively.
(§4) The viability was determined by using the trypan blue staining in the well of cell counting.

in vitro = type: cell-based; conditions: human
Method: as §3, §4

CCD-1074sk = experiment: in vitro; type: cell-based; conditions: human, 220 nM
Method: as §3, §4

[1] = viability (%) calculated from the cell counts

## CC(=O)O[C@H]1C(=O)[C@@]2(C)[C@H]([C@H](OC(=O)c3ccccc3)[C@]3(O)C[C@H](OC(=O)[C@H](O)[C@@H](NC(=O)c4ccccc4)c4ccccc4)C(C)=C1C3(C)C)[C@]1(OC(C)=O)CO[C@@H]1C[C@@H]2O [Taxol]
MDA-MB-468
  cell counts (trend): increasing; also recorded: again recovering
MDA-MB-468; 1st week (LC50), 0 h
  cell counts, Mean value: 36000
  cell counts: 32000 and 40000
MDA-MB-468; 1st week (LC50), 24 h
  cell counts, Mean value: 23333
  cell counts: 24000 and 30000 and 16000
MDA-MB-468; 1st week (LC50), 48 h
  cell counts, Mean value: 13000
  cell counts: 10000 and 12000 and 17000
MDA-MB-468; 1st week (LC50), 4 d
  cell counts, Mean value: 17667
  cell counts: 15000 and 18000 and 20000
MDA-MB-468; 1st week (LC50), 7 d
  cell counts, Mean value: 9000
MDA-MB-468; 2nd week (recovery), 0 h
  cell counts, Mean value: 8333
MDA-MB-468; 2nd week (recovery), 24 h
  cell counts, Mean value: 3667
  cell counts: 4000 and 3000
MDA-MB-468; 2nd week (recovery), 48 h
  cell counts, Mean value: 8333
MDA-MB-468; 2nd week (recovery), 4 d
  cell counts, Mean value: 9333
  cell counts: 9000 and 10000
MDA-MB-468; 2nd week (recovery), 7 d
  cell counts, Mean value: 11667
  cell counts: 9000 and 11000 and 15000
PC-3; 1st week (LC50), 0 h
  The absorbance, Mean value: 0.693
  The absorbance: 0.7147 and 0.7027 and 0.6625
PC-3; 1st week (LC50), 12 h
  The absorbance, Mean value: 0.567
  The absorbance: 0.5126 and 0.6101 and 0.5779
PC-3; 1st week (LC50), 24 h
  The absorbance, Mean value: 0.692
  The absorbance, group - Blank: 0.5326
  The absorbance: 0.7192 and 0.6542 and 0.7011
PC-3; 1st week (LC50), 48 h
  The absorbance, Mean value: 1.747
  The absorbance, group - Blank: 1.5885
  The absorbance: 1.9128 and 1.6455 and 1.6838
PC-3; 1st week (LC50), 4 d
  The absorbance, Mean value: 1.266
  The absorbance, group - Blank: 1.1072
  The absorbance: 1.1723 and 1.5491 and 1.0768
PC-3; 2nd week (recovery), 0 h
  The absorbance, Mean value: 0.5354
  The absorbance: 0.5937 and 0.5232 and 0.4893
PC-3; 2nd week (recovery), 24 h
  The absorbance, Mean value: 1.6693
  The absorbance, group - Blank: 1.5104
  The absorbance: 1.3804 and 1.6987 and 1.9288
PC-3; 2nd week (recovery), 48 h
  The absorbance, Mean value: 0.7660
  The absorbance, group - Blank: 0.6071
  The absorbance: 0.795 and 0.7948 and 0.7081
PC-3; 2nd week (recovery), 4 d
  The absorbance, Mean value: 1.2875
  The absorbance, group - Blank: 1.1286
PC-3; human, 12 h, 220 nM
  The cytotoxicity: 0.5920
  The viability: 0.3649
HT 1299
  process of cell death (microscopy): cell membranes were ruptured by toxicity of Taxol, and then nuclei of cells changed into black
HT 1299; 1st week (LC50), 0 h
  cell counts, Mean value: 3737
HT 1299; 1st week (LC50), 12 h
  cell counts, Mean value: 3705
  cell counts: 2680 and 3085 and 5350
HT 1299; 1st week (LC50), 24 h
  cell counts, Mean value: 3252
  cell counts: 2810 and 4255 and 2690
HT 1299; 1st week (LC50), 48 h
  cell counts, Mean value: 1464
  cell counts: 1382 and 1526 and 1484
HT 1299; 1st week (LC50), 4 d
  cell counts: 488 and 536 and 712
HT 1299; 1st week (LC50), 7 d
  cell counts, Mean value: 782
  cell counts: 982 and 736
HT 1299; 2nd week (recovery), 0 h
  cell counts, Mean value: 919
  cell counts: 1193 and 789 and 776
HT 1299; 2nd week (recovery), 24 h
  cell counts, Mean value: 227
HT 1299; 2nd week (recovery), 48 h
  cell counts, Mean value: 432
  cell counts: 410 and 499 and 386
HT 1299; 2nd week (recovery), 4 d
  cell counts, Mean value: 446
  cell counts: 322 and 545 and 470
HT 1299; 2nd week (recovery), 7 d
  cell counts, Mean value: 118
  cell counts: 104 and 144 and 107
Saos-2
  process of cell death (microscopy): cell membranes were ruptured by toxicity of Taxol, and then nuclei of cells changed into black
Saos-2; 1st week (LC50), 0 h
  cell counts: 2143 and 2221 and 2135
  cell counts, Mean value: 2166
Saos-2; 1st week (LC50), 12 h
  cell counts: 1756 and 1790 and 1705
  cell counts, Mean value: 1750
Saos-2; 1st week (LC50), 24 h
  cell counts: 1529 and 1376 and 1452
  cell counts, Mean value: 1452
Saos-2; 1st week (LC50), 48 h
  cell counts: 857 and 822 and 776
  cell counts, Mean value: 818
Saos-2; 1st week (LC50), 4 d
  cell counts, Mean value: 420
Saos-2; 2nd week (recovery), 0 h
  cell counts, Mean value: 609
Saos-2; 2nd week (recovery), 24 h
  cell counts, Mean value: 183
Saos-2; 2nd week (recovery), 48 h
  cell counts: 312 and 249 and 165
  cell counts, Mean value: 242
Saos-2; 2nd week (recovery), 4 d
  cell counts: 416 and 589 and 602
  cell counts, Mean value: 536
Saos-2; 2nd week (recovery), 7 d
  cell counts, Mean value: 635
TT; 1st week (LC50), 0 h
  viability (%): 79.5% and 80.8% and 78.4%
  viability (%), Mean value: 79.6%
TT; 1st week (LC50), 24 h
  viability (%): 76.5% and 64.7% and 72.7%
  viability (%), Mean value: 71.3%
TT; 1st week (LC50), 48 h
  viability (%): 72.5% and 72% and 76.9%
  viability (%), Mean value: 73.8%
TT; 1st week (LC50), 4 d
  viability (%): 70.1%
  viability (%), Mean value: 67.8%
TT; 1st week (LC50), 7 d
  viability (%): 75% and 37.5%
  viability (%), Mean value: 59.7%
TT; 2nd week (recovery), 0 h, trypan blue, mean value
  viability (%), Mean value: 65%
TT; 2nd week (recovery), 0 h, trypan blue
  viability (%) calculated from the cell counts: 70% and 75% and 50%
TT; 2nd week (recovery), 24 h, trypan blue, mean value
  viability (%), Mean value: 41.1%
TT; 2nd week (recovery), 48 h, trypan blue, mean value
  viability (%), Mean value: 35.1%
TT; 2nd week (recovery), 4 d, trypan blue, mean value
  viability (%), Mean value: 37.6%
TT; 2nd week (recovery), 7 d, trypan blue, mean value
  viability (%), Mean value: 33.5%
TT; 2nd week (recovery), 7 d, trypan blue
  viability (%) calculated from the cell counts: 25% and 42.3%
In vitro; [1]
  viability at 0 h, 2.2e-07 M: 70%
  viability at 24 h, 2.2e-07 M: 71%
  viability at 4 d, 2.2e-07 M: 43%
In vitro; viability (%), Mean value
  viability at 0 h, 2.2e-07 M: 73%
  viability at 24 h, 2.2e-07 M: 80%
  viability at 4 d, 2.2e-07 M: 38%
CCD-1074sk; 0 h
  viability (%), Mean value: 79%
CCD-1074sk; 48 h
  viability (%) calculated from the cell counts: 83%
CCD-1074sk; 4 d
  viability (%) calculated from the cell counts: 33%
